Laboratory results: PMC11198849, “Expression and purification of human neutrophil proteinase 3 from insect cells and characterization of ligand binding” (PLOS ONE, 2024)
Several values for one entry are separate records, joined by “and”; a condition that tells them apart may be missing. Equal values may be shown once. Read-outs that look alike come from different tables or passages of the source.

Assays:
[1] = target: T1, rPR3 (Homo sapiens, UniProt P24158); assay: Fluorescence-based enzymatic activity assay with rPR3 (FRET peptide Abz-VADnVADYQ-EDDnp); type: biochemical
T1 construct: TEV cleavage site (C); 6x His-tag (C); made in house; host or cells: Spodoptera frugiperda Sf9 (baculovirus), secreted
T1 sequence (P24158 28-248 limits assumed): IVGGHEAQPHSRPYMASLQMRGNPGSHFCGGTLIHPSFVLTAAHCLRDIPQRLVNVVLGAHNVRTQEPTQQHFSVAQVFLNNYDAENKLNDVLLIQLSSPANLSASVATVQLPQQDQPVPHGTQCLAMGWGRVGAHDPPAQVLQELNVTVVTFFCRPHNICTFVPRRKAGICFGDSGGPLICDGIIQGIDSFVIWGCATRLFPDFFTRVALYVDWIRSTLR
Method: (§1) The reaction was started by adding the FRET peptide (Abz-VADnVADYQ-EDDnp) at a final concentration of 5 μM. The fluorescent signal (excitation filter 320, emission filter 420) was read every 30 s for 30 min at 30°C with a fluorescent plate reader (Tecan Spark) and the enzymatic activity was measured from the initial linear portion of the slope (fluorescent signal/min) of the time-course curve of reaction progress.
(§2) Data were fitted using nonlinear regression analysis (GraphPad Prism v.9) to determine the IC50 values.

[2] = target: T2, hPR3 (Homo sapiens, UniProt P24158); assay: Fluorescence-based enzymatic activity assay with hPR3 (FRET peptide Abz-VADnVADYQ-EDDnp); type: biochemical
T2 construct: Enzymes purified from human neutrophiles (hPR3 and hNE); purchased Athens Research and Technology; host or cells: human neutrophils
T2 sequence (P24158 28-248 limits assumed): T1 sequence (P24158 28-248 limits assumed)
Method: as §1, §2

[3] = target: T1, rPR3; assay: SPR binding assay on biotinylated rPR3; details: for SPR binding behaviour towards rPR3 (in words): sensorgrams Fig 5
[4] = target: T3, hNE (Homo sapiens, UniProt P08246); assay: Fluorescence-based enzymatic activity assay with hNE (MeOSuc-AAPV-AMC substrate); type: biochemical; details: for %Relative activity of enzyme: hNE, Rep1-Rep3
T3 construct: Enzymes purified from human neutrophiles (hPR3 and hNE); purchased Athens Research and Technology; host or cells: human neutrophils
T3 sequence (P08246 30-247 limits assumed): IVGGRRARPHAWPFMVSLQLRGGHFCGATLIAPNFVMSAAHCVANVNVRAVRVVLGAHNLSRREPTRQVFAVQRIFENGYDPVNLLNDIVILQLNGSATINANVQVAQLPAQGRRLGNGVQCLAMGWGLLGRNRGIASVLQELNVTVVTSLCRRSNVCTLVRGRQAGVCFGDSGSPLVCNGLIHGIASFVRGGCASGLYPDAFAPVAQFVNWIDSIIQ
Method: The reaction was started by adding the fluorogenic substrate (MeOSuc-AAPV-AMC) at a final concentration of 5 μM. The fluorescent signal (excitation filter 360, emission filter 460) was read as described above for PR3.
as §2

[5] = target: α1-antitrypsin (Homo sapiens) (UniProt P01009); details: cited from earlier work
Chain of α1-antitrypsin (Homo sapiens) (P01009 25-418): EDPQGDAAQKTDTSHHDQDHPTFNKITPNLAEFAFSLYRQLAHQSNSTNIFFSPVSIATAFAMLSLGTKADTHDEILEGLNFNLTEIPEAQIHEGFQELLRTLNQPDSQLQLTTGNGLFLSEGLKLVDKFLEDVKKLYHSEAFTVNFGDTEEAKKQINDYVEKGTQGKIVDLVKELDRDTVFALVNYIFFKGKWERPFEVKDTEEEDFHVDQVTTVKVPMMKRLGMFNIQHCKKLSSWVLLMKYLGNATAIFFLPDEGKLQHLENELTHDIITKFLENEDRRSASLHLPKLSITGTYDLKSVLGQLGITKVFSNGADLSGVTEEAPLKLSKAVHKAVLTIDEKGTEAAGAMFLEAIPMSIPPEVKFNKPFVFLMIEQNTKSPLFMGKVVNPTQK

[6] = test system: PR3; details: cited from earlier work
[7] = IC50 replicates Rep1-Rep3, read-out: rPR3 IC50
[8] = mean ± SD (n = 3), read-out: IC50 rPR3
[9] = IC50 replicates Rep1-Rep3, read-out: hPR3 IC50
[10] = mean ± SD (n = 3), read-out: IC50 hPR3
[11] = affinity data, single replicates Rep1-Rep3, read-out: Steady state KD
[12] = steady state, average and SD of triplicates, read-out: Steady state KD

Molecule	IC50 [1, 7]	IC50 [1, 8]	IC50 [2, 9]	IC50 [2, 10]	SPR binding behaviour towards rPR3 (in words) [3]	Kd [3, 11]	Kd [3, 12]	also measured
CC1=C(C#N)[C@@H](c2ccc(C#N)cc2S(C)(=O)=O)N(C)C(=O)N1c1cccc(C(F)(F)F)c1 [BAY-85-8501]	67.7 nM and 55 nM and 53.6 nM	59 ± 8 nM	24.3 nM and 24.7 nM and 31.5 nM	27 ± 4 nM	–	2.6e-08 M and 4.4e-08 M and 1.6e-08 M	3e-08 ± 1e-08 M	Ki ([1]; Cheng-Prusoff equation, literature Km 27.4 μM, read-out: Ki derived from the IC50 value): 50 nM; Kd ([3]; 1:1 binding kinetic model, average and SD of triplicates, read-out: KD): 1.4e-08 M; Kd ([3]; affinity data, average of Rep1-Rep3, read-out: Steady state KD (M), Average): 2.87e-08 M; Kd ([3]; average of Rep1-Rep3, read-out: KD (M), kinetics 1:1, Average): 1.37e-08 M; Kd ([3]; single replicates Rep1-Rep3, read-out: KD (M), kinetics 1:1): 1.37e-08 M and 1.09e-08 M and 1.66e-08 M
Cc1c(-c2ccnn2C)cc(C(=O)NCc2ccc(S(C)(=O)=O)cn2)c(=O)n1-c1cccc(C(F)(F)F)c1 [Alvelestat]	–	–	–	–	weak rPR3 binder with fast association and dissociation rates	1.95e-05 M and 1.26e-05 M and 8.36e-06 M	1.35e-05 ± 5.6e-06 M	IC50 ([4]; IC50 replicates Rep1-Rep3): 10.7 nM and 12.1 nM and 11.6 nM; %Relative activity of enzyme ([4]; inhibitor 1.95 nM): 78.8834% and 84.934% and 85.1448%; %Relative activity of enzyme ([4]; inhibitor 3.9 nM): 78.3028% and 76.8727%; %Relative activity of enzyme ([4]; inhibitor 7.8 nM): 61.4733% and 58.7939% and 60.1294%; %Relative activity of enzyme ([4]; inhibitor 15.6 nM): 40.7947% and 40.9606% and 39.7611%; %Relative activity of enzyme ([4]; inhibitor 31.25 nM): 27.1224% and 29.7155% and 27.7611%; %Relative activity of enzyme ([4]; inhibitor 62.5 nM): 15.0503% and 20.2323% and 16.5108%; %Relative activity of enzyme ([4]; inhibitor 125 nM): 9.7027% and 8.522% and 9.4691%
Proteinase 3 (from UniProt P24158)	–	–	–	–	–	–	–	Ki [5]: 38 nM

More lines, main results first:

IC50 [1, 7]	IC50 [1, 8]	IC50 [2, 9]	IC50 [2, 10]	SPR binding behaviour towards rPR3 (in words) [3]	Molecule	Kd [3, 11]	Kd [3, 12]	also measured
35.8 nM and 29.5 nM and 30.1 nM	32 ± 4 nM	33.6 nM and 34.1 nM and 30.4 nM	33 ± 2 nM	hardly dissociated	CC(C)(C)C(=O)Oc1ccc(S(=O)(=O)Nc2ccccc2C(=O)NCC(=O)O)cc1 [Sivelestat]	–	–	–
–	14 ± 1 nM	–	15 ± 1 nM	hardly dissociated	α1-antitrypsin: endogenous serine protease inhibitor, also denoted SERPIN; purchased from Sigma-Aldrich	–	–	IC50 ([1]; IC50 replicates Rep1-Rep3, listed as a1-antitrypsin, read-out: rPR3 IC50): 15.3 nM and 14.7 nM and 13.5 nM; first-order rate constant k2 (EI* to irreversible EI) [6]: 0.04 s⁻¹; IC50 ([2]; IC50 replicates Rep1-Rep3, listed as a1-antitrypsin, read-out: hPR3 IC50): 15.8 nM and 15.5 nM and 14.6 nM
